Results on six compounds are retold here after the NIST ThermoML archive (doi:10.1021/je0255628).

The conditions of this data set: Liquid.

The term vapor or sublimation pressure denotes the pressure of vapour in equilibrium with the condensed phase.

Molecules are shown by their SMILES. Where “and” joins values, the source holds several entries; their conditions need not be identical. Equal values may be shown once. Numbers after ± are expanded uncertainties.

Consider `COC(C)=O` [methyl ethanoate], for which, for the setting “313.15 K”, the “vapor or sublimation pressure” value is 53.81 ± 0.24 kPa.

With `CCOC(C)=O` [ethyl acetate], under “313.15 K”, the “vapor or sublimation pressure” value turned out to be 25.08 ± 0.2 kPa. With `CCOC(=O)CC` [ethyl propanoate], where the note is “313.15 K”, the “vapor or sublimation pressure” value came out at 10.6 ± 0.17 kPa. For the compound `COC=O` [methyl methanoate], the “vapor or sublimation pressure” value (308.15 K) is 114.88 ± 0.35 kPa.

With `CCCOC(C)=O` [propyl ethanoate], for the setting “313.15 K”, the “vapor or sublimation pressure” value is given as 9.586 ± 0.17 kPa. Regarding `CCOCCO` [2-ethoxyethan-1-ol], the “vapor or sublimation pressure” value (308.15 K) was 1.303 ± 0.16 kPa; the “vapor or sublimation pressure” value (313.15 K) was 1.864 ± 0.16 kPa and 1.803 ± 0.16 kPa and 1.829 ± 0.16 kPa.
